Test results as given in ChEMBL document CHEMBL5321278, “Discovery of Aminoratjadone Derivatives as Potent Noncovalent CRM1 Inhibitors” (J Med Chem, 2023).
Active and inactive are the calls of the source. No cut-off for these calls is given here. Where a SMILES comes first, the peptide text is derived from it. The star is where a group is joined. Cbz = O=C(OCc1ccccc1)*

Experiments:
Exportin-1 [1] = target: T1, Exportin-1 (Homo sapiens, UniProt O14980); test: Non-covalent inhibition of CRM1 (unknown origin) assessed as reversal of GST-tagged NES peptide binding
Exportin-1 [2] = target: T1, Exportin-1; test: Non-covalent inhibition of CRM1 (unknown origin) assessed as reversal of GST-tagged NES peptide binding pretreated with CRM1 followed by compound addition and measured after 2 hrs
Exportin-1 [3] = target: T1, Exportin-1; test: Inhibition of CRM1 (unknown origin) assessed as binding of GST-tagged NES peptide
Exportin-1 [4] = target: T1, Exportin-1; test: Inhibition of CRM1-mediated nuclear export in human HeLa cells expressing mCherry-tagged NES reporter incubated for 3 hrs by confocal microscopy analysis; assay type: cell-based; conditions: for inhibition: dose 0.09-3 µM
[5] = tested on: Exportin-1 (Homo sapiens), O14980 [C528S]; test: Inhibition of CRM1 C528S mutant-mediated nuclear export in human HeLa cells expressing mCherry-tagged NES reporter at 1 uM incubated for 3 hrs by confocal microscopy analysis; assay type: cell-based
Exportin-1 [6] = target: T1, Exportin-1; test: Inhibition of CRM1 nuclear export in human HeLa cells assessed as CRM1 depletion measured after 6 hrs; assay type: cell-based; conditions: for inhibition: dose 0.1-9 µM
HeLa [7] = test: Downregulation of CRM1 expression in human HeLa cells at 9 uM incubated for 6 hrs by Western blot analysis; assay type: functional, cell-based
HeLa [8] = test: Downregulation of CRM1 mRNA expression in human HeLa cells at 9 uM incubated for 6 hrs; assay type: functional, cell-based
HCT-116 [9] = test: Cytotoxicity against human HCT-116 cells assessed as reduction in cell viability incubated for 72 hrs by CCK-8 assay; assay type: functional, cell-based; conditions: HCT-116, 72 h
Exportin-1 [10] = target: T1, Exportin-1; test: Inhibition of CRM1-mediated nuclear export in human HCT-116 cells assessed as inhibition of nuclear export of cargoes at 1 uM; assay type: cell-based
[11] = tested on: Exportin-1 (Homo sapiens), O14980 [C528S]; test: Inhibition of CRM1 C528S mutant-mediated nuclear export in human HCT-116 cells assessed as inhibition of nuclear export of cargoes at 1 uM; assay type: cell-based
RKO [12] = test: Cytotoxicity against human RKO cells assessed as reduction in cell viability incubated for 72 hrs by CCK-8 assay; assay type: functional, cell-based
HCT-116 [13] = test: Cytotoxicity against SiRNA mediated CRM1 knockdown human HCT-116 cells assessed as reduction in cell viability at 0.3 to 1 uM incubated for 72 hrs by CCK-8 assay; assay type: functional, cell-based; conditions: dose 0.3-1 µM
RKO [14] = test: Cytotoxicity against SiRNA mediated CRM1 knockdown human RKO cells assessed as reduction in cell viability at 0.3 to 1 uM incubated for 72 hrs by CCK-8 assay; assay type: functional, cell-based; conditions: dose 0.3-1 µM
Exportin-1 [15] = target: T1, Exportin-1; test: Inhibition of CRM1 nuclear export in human HeLa cells assessed as CRM1 depletion at 50 uM measured after 6 hrs; assay type: cell-based
Exportin-1 [16] = target: T1, Exportin-1; test: Inhibition of CRM1 nuclear export in human HeLa cells assessed as CRM1 depletion at 1 uM measured after 6 hrs; assay type: cell-based
Exportin-1 [17] = target: T1, Exportin-1; test: Binding affinity to CRM1 (unknown origin) assessed as dissociation constant by microscale thermophoresis assay
Exportin-1 [18] = target: T1, Exportin-1; test: Inhibition of CRM1 nuclear export in human HeLa cells assessed as CRM1 depletion at 10 uM measured after 6 hrs; assay type: cell-based
HCT-116 [19] = test: Induction of apoptosis in human HCT-116 cells assessed as increase in cleaved PARP-1 level by Western blot analysis; assay type: functional, cell-based
HCT-116 [20] = test: Induction of apoptosis in human HCT-116 cells assessed as viable cells at 0.5 uM measured after 24 hrs by AnnexinV-FITC/propidium iodide staining based flow cytometric analysis (reference value: 89.32%); assay type: functional; conditions: read-out: Activity
HCT-116 [21] = test: Induction of apoptosis in human HCT-116 cells assessed as early apoptotic at 0.5 uM measured after 24 hrs by AnnexinV-FITC/propidium iodide staining based flow cytometric analysis (reference value: 3.55%); assay type: functional
HCT-116 [22] = test: Induction of apoptosis in human HCT-116 cells assessed as late apoptotic at 0.5 uM measured after 24 hrs by AnnexinV-FITC/propidium iodide staining based flow cytometric analysis (reference value: 4.91%); assay type: functional
HCT-116 [23] = test: Induction of apoptosis in human HCT-116 cells assessed as necrotic at 0.5 uM measured after 24 hrs by AnnexinV-FITC/propidium iodide staining based flow cytometric analysis (reference value: 2.22%); assay type: functional
HCT-116 [24] = test: Induction of apoptosis in human HCT-116 cells assessed as viable cells at 1 uM measured after 24 hrs by AnnexinV-FITC/propidium iodide staining based flow cytometric analysis (reference value: 89.32%); assay type: functional; conditions: read-out: Activity
HCT-116 [25] = test: Induction of apoptosis in human HCT-116 cells assessed as early apoptotic at 1 uM measured after 24 hrs by AnnexinV-FITC/propidium iodide staining based flow cytometric analysis (reference value: 3.55%); assay type: functional
HCT-116 [26] = test: Induction of apoptosis in human HCT-116 cells assessed as late apoptotic at 1 uM measured after 24 hrs by AnnexinV-FITC/propidium iodide staining based flow cytometric analysis (reference value: 4.91%); assay type: functional
HCT-116 [27] = test: Induction of apoptosis in human HCT-116 cells assessed as necrotic at 1 uM measured after 24 hrs by AnnexinV-FITC/propidium iodide staining based flow cytometric analysis (reference value: 2.22%); assay type: functional
RKO [28] = test: Induction of apoptosis in human RKO cells assessed as viable cells at 0.5 uM measured after 24 hrs by AnnexinV-FITC/propidium iodide staining based flow cytometric analysis (reference value: 92.51%); assay type: functional; conditions: read-out: Activity
RKO [29] = test: Induction of apoptosis in human RKO cells assessed as early apoptotic at 0.5 uM measured after 24 hrs by AnnexinV-FITC/propidium iodide staining based flow cytometric analysis (reference value: 1.79%); assay type: functional
RKO [30] = test: Induction of apoptosis in human RKO cells assessed as late apoptotic at 0.5 uM measured after 24 hrs by AnnexinV-FITC/propidium iodide staining based flow cytometric analysis (reference value: 4.70%); assay type: functional
RKO [31] = test: Induction of apoptosis in human RKO cells assessed as necrotic at 0.5 uM measured after 24 hrs by AnnexinV-FITC/propidium iodide staining based flow cytometric analysis (reference value: 1%); assay type: functional
RKO [32] = test: Induction of apoptosis in human RKO cells assessed as viable cells at 1 uM measured after 24 hrs by AnnexinV-FITC/propidium iodide staining based flow cytometric analysis (reference value: 92.51%); assay type: functional; conditions: read-out: Activity
RKO [33] = test: Induction of apoptosis in human RKO cells assessed as early apoptotic at 1 uM measured after 24 hrs by AnnexinV-FITC/propidium iodide staining based flow cytometric analysis (reference value: 1.79%); assay type: functional
RKO [34] = test: Induction of apoptosis in human RKO cells assessed as late apoptotic at 1 uM measured after 24 hrs by AnnexinV-FITC/propidium iodide staining based flow cytometric analysis (reference value: 4.70%); assay type: functional
RKO [35] = test: Induction of apoptosis in human RKO cells assessed as necrotic at 1 uM measured after 24 hrs by AnnexinV-FITC/propidium iodide staining based flow cytometric analysis (reference value: 1%); assay type: functional
Exportin-1 [36] = target: T1, Exportin-1; test: Binding affinity to CRM1 in human HCT-116 cells assessed as thermal stabilization at 50 uM at 50 to 68 degreeC incubated for 3 mins by […] analysis; assay type: cell-based
HCT-116 [37] = test: Inhibition of colony formation in human HCT-116 cells assessed as decrease in colonies upto 0.5 uM incubated for 72 hrs by crystal violet staining based assay; assay type: functional, cell-based
RKO [38] = test: Inhibition of colony formation in human RKO cells assessed as decrease in colonies upto 0.5 uM incubated for 72 hrs by crystal violet staining based assay; assay type: functional, cell-based
RKO [39] = test: Induction of apoptosis in human RKO cells assessed as increase in cleaved PARP-1 level by Western blot analysis; assay type: functional, cell-based
Exportin-1 [40] = target: T1, Exportin-1; test: Inhibition of CRM1-mediated nuclear export in human HeLa cells expressing mCherry-tagged NES reporter at 1 uM incubated for 3 hrs by confocal microscopy analysis; assay type: cell-based

T1 sequence (O14980 whole entry): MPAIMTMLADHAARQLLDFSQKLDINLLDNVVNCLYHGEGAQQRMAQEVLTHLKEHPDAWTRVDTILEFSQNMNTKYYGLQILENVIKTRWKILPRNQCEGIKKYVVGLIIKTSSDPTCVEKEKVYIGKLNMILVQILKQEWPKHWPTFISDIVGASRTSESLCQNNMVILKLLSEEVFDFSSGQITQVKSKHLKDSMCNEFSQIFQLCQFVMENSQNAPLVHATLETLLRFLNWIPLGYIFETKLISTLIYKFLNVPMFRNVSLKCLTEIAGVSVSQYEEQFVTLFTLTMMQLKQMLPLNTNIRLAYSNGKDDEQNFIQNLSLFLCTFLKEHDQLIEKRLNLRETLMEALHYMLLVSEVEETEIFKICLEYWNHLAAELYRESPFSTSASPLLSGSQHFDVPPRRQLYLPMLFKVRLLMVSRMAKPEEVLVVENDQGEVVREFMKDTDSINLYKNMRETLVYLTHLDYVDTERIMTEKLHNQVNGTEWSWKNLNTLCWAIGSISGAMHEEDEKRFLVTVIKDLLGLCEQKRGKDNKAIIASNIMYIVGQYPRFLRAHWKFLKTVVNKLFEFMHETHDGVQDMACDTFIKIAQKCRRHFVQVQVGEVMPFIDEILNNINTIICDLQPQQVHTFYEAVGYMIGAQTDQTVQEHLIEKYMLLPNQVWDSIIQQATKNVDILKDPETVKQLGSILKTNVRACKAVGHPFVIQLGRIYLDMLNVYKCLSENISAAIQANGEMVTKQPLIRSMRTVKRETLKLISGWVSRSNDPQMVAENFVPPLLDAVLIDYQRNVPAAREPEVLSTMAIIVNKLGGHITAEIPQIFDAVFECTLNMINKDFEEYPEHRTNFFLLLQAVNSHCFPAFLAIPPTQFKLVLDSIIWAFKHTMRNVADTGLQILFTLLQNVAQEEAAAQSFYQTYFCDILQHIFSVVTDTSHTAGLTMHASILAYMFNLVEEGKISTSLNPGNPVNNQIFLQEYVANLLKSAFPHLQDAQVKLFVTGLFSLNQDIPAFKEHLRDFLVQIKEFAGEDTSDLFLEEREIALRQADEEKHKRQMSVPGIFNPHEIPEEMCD
Sequence of Exportin-1 (Homo sapiens), O14980 [C528S] (O14980 whole entry C528S): as the sequence (O14980 whole entry) above, with C528S counted along it

C/C=C/[C@@H]1O[C@H]([C@@H](N)/C=C/C=C(\C)C[C@@H](C)/C=C(C)\C=C\[C@H](O)C[C@H](N)CC(=O)OC)C[C@H](O)[C@@H]1C
inhibition (Exportin-1 [1]): Active
inhibition (Exportin-1 [2]): Active
inhibition (Exportin-1 [3]): Active
IC50 (Exportin-1 [4]): 340 nM
inhibition (Exportin-1 [4]): Dose-Dependent Effect
inhibition [5]: Active
IC50 (Exportin-1 [6]): 550 nM
inhibition (Exportin-1 [6]): Active
Activity (HeLa [7]): inactive
Activity (HeLa [8]): inactive
IC50 (HCT-116 [9]): 320 nM
inhibition (Exportin-1 [10]): Active
inhibition [11]: inactive
IC50 (RKO [12]): 300 nM
Activity (HCT-116 [13]): Active
Activity (RKO [14]): Active

CC(C)C[C@@H](C=O)NC(=O)[C@H](CC(C)C)NC(=O)[C@H](CC(C)C)NC(=O)OCc1ccccc1 (Cbz-Leu-Leu-Leu-aldehyde)
inhibition (Exportin-1 [15]): Active

O=C(/C=C\n1cnc(-c2cc(C(F)(F)F)cc(C(F)(F)F)c2)n1)NNc1cnccn1
inhibition (Exportin-1 [16]): inactive

C/C=C/[C@@H]1O[C@H]([C@@H](N)/C=C/C=C(\C)C[C@@H](C)/C=C(C)\C=C\[C@H](O)C[C@@H](CC(=O)NCCO)NCCO)C[C@H](O)[C@@H]1C
inhibition (Exportin-1 [3]): inactive
inhibition (Exportin-1 [16]): inactive

C/C=C/[C@@H]1O[C@H]([C@H](N)/C=C/C=C(\C)C[C@@H](C)/C=C(C)\C=C\[C@H](O)C[C@H](N)CC(=O)O)C[C@H](O)[C@@H]1C
Kd (Exportin-1 [17]): 5900 nM

CCN(CC)CCCC(C)Nc1ccnc2cc(Cl)ccc12 (configuration not stated)
inhibition (Exportin-1 [18]): Active

C/C=C/[C@@H]1O[C@H]([C@H](N)/C=C/C=C(\C)C[C@@H](C)/C=C(C)\C=C\[C@H](O)C[C@H](N)CC(=O)OC)C[C@H](O)[C@@H]1C
Activity (HCT-116 [19]): Active
viability at 0.5 µM (HCT-116 [20]): 78%
Activity (HCT-116 [21]): 5.73%
Activity (HCT-116 [22]): 12.47%
Activity (HCT-116 [23]): 3.75%
viability at 1 µM (HCT-116 [24]): 62.4%
Activity (HCT-116 [25]): 4.32%
Activity (HCT-116 [26]): 25.08%
Activity (HCT-116 [27]): 8.17%
viability at 0.5 µM (RKO [28]): 78.8%
Activity (RKO [29]): 3.34%
Activity (RKO [30]): 11.78%
Activity (RKO [31]): 6.09%
viability at 1 µM (RKO [32]): 70.9%
Activity (RKO [33]): 2.78%
Activity (RKO [34]): 18.43%
Activity (RKO [35]): 7.93%
inhibition (Exportin-1 [1]): Active
Kd (Exportin-1 [17]): 4600 nM
inhibition (Exportin-1 [3]): Active
IC50 (Exportin-1 [4]): 280 nM
inhibition (Exportin-1 [4]): Dose-Dependent Effect
inhibition [5]: Active
IC50 (Exportin-1 [6]): 270 nM
inhibition (Exportin-1 [6]): Active
Activity (HeLa [7]): inactive
Activity (HeLa [8]): inactive
IC50 (HCT-116 [9]): 120 nM
inhibition (Exportin-1 [10]): Active
inhibition [11]: inactive
IC50 (RKO [12]): 190 nM
Activity (HCT-116 [13]): Active
Activity (RKO [14]): Active
Activity (Exportin-1 [36]): Active
inhibition (HCT-116 [37]): Active
inhibition (RKO [38]): Active
Activity (RKO [39]): Active

C/C=C/[C@@H]1O[C@H]([C@@H](N)/C=C/C=C(\C)C[C@@H](C)/C=C(C)\C=C\[C@H](O)C[C@H](N)CC(N)=O)C[C@H](O)[C@@H]1C
inhibition (Exportin-1 [3]): inactive
inhibition (Exportin-1 [40]): inactive
inhibition (Exportin-1 [16]): inactive
